We go through five compounds from the NIST ThermoML archive (doi:10.1016/j.fluid.2017.06.018).

Data set [1] in a line: refractive index (Na D-line) (dimensionless); xn = mol fraction of the nth substance listed. The following applies: 100 kPa, Liquid, Standard Abbe refractometry, x1 = 1.
A short description of data set [2]: xn = mol fraction of the nth substance listed. The following applies: 100 kPa, Liquid, x1 = 1; for viscosity: Falling or rolling sphere viscometry; for mass density: Vibrating tube method.
Data set [3] can be described thus: refractive index (Na D-line) (dimensionless). The settings on record: 100 kPa, Liquid, Standard Abbe refractometry.
For data set [4] the following is noted: 100 kPa, Liquid; for viscosity: Falling or rolling sphere viscometry; for mass density: Vibrating tube method.

Values joined by “and” are separate entries in the source; they are usually repeats but may differ in a detail not shown here. Identical values can stand only once. ± gives the expanded uncertainty stated by the source.

In general, refractive index refers to a measure of how strongly the sample bends light. For orientation: viscosity means the resistance of a fluid to flow. By mass density is commonly meant mass per unit of volume. `NCCO` [2-aminoethan-1-ol] + NCCNCCO: the refractive index in data set [1] (298.15 K) is 1.4535 ± 0.0021; in data set [1] (303.15 K) it was 1.4519 ± 0.0021; in data set [1] (308.15 K) it was 1.4505 ± 0.0021. The viscosity in data set [2] (298.15 K) is reported as 18.72 ± 0.44 mPa·s; in data set [2] (303.15 K), 15.15 ± 0.36 mPa·s; in data set [2] (308.15 K), 11.96 ± 0.28 mPa·s. In addition, the mass density in data set [2] (298.15 K) was found to be 1012.4 ± 2.2 kg/m3; in data set [2] (303.15 K), 1008.4 ± 2.1 kg/m3; in data set [2] (308.15 K), 1004.5 ± 2.1 kg/m3.
Take `NCCO` [2-aminoethan-1-ol] + NCCNCCN: the refractive index came out at 1.4535 ± 0.0021 in data set [1] (298.15 K), 1.4519 ± 0.0021 in data set [1] (303.15 K) and 1.4505 ± 0.0021 in data set [1] (308.15 K). In addition, the viscosity in data set [2] (298.15 K) turned out to be 18.72 ± 0.44 mPa·s; in data set [2] (303.15 K) it was 15.15 ± 0.36 mPa·s; in data set [2] (308.15 K), 11.9 ± 0.28 mPa·s. The mass density in data set [2] (298.15 K) stood at 1012.4 ± 2.2 kg/m3; in data set [2] (303.15 K), 1008.4 ± 2.1 kg/m3; in data set [2] (308.15 K), 1004.5 ± 2.1 kg/m3.
For the compound `NCCNCCO` [N-(2-aminoethyl)ethanolamine], the refractive index in data set [3] (298.15 K) worked out at 1.4843 ± 0.002; in data set [3] (303.15 K), 1.4827 ± 0.002; in data set [3] (308.15 K), 1.4811 ± 0.002. Also, the values for the viscosity in data set [4] (298.15 K), in data set [4] (303.15 K) and in data set [4] (308.15 K) were 98.62 ± 2.9 mPa·s, 70.57 ± 1.6 mPa·s and 53.11 ± 1.1 mPa·s, respectively. The values for the mass density in data set [4] (298.15 K), in data set [4] (303.15 K) and in data set [4] (308.15 K) were 1025.8 ± 2 kg/m3, 1021.3 ± 2 kg/m3 and 1016.3 ± 2 kg/m3, respectively.
For `NCCNCCN` [di(2-aminoethyl)amine], the values for the refractive index in data set [3] (298.15 K), in data set [3] (303.15 K) and in data set [3] (308.15 K) were 1.4822 ± 0.0021, 1.4808 ± 0.0021 and 1.4793 ± 0.0021, respectively. Besides, the viscosity worked out at 5.63 ± 0.13 mPa·s in data set [4] (298.15 K), 4.5 ± 0.11 mPa·s in data set [4] (303.15 K) and 3.85 ± 0.09 mPa·s in data set [4] (308.15 K). For the same compound, the mass density in data set [4] (298.15 K) amounted to 945.8 ± 2.1 kg/m3; in data set [4] (303.15 K), 942.1 ± 2.1 kg/m3; in data set [4] (308.15 K), 937.8 ± 2.1 kg/m3.
Take `NCCO` [2-aminoethan-1-ol]: the refractive index in data set [3] (298.15 K) worked out at 1.4535 ± 0.0021; in data set [3] (303.15 K) it was 1.4519 ± 0.0021; in data set [3] (308.15 K), 1.4505 ± 0.0021. For the same compound, the viscosity in data set [4] (298.15 K) was 18.72 ± 0.44 mPa·s; in data set [4] (303.15 K), 15.15 ± 0.36 mPa·s; in data set [4] (308.15 K), 11.9 ± 0.28 mPa·s and 11.96 ± 0.28 mPa·s. The mass density in data set [4] (298.15 K) came to 1012.4 ± 2.2 kg/m3; in data set [4] (303.15 K), 1008.4 ± 2.1 kg/m3; in data set [4] (308.15 K) it was 1004.5 ± 2.1 kg/m3.
